For data set [1], the target named is T1, CsFGT (rCsFGT) (Camellia sinensis, UniProt A0A0X9FCW5, S291G).
T1 construct: gene UGT91Q1; N-terminal 6xHis-trigger factor fusion (pCold-TF), about 105 kDa; E. coli Origami (DE3); tag not removed for kinetics
Description: product formation by HPLC. Type of data set: biochemical. The following applies: co-substrate UDP-glc.

The target in data set [2] is T2, CsFGT (rCsFGT) (Camellia sinensis, UniProt A0A0X9FCW5, E292Q).
T2 construct: gene UGT91Q1; N-terminal 6xHis-trigger factor fusion (pCold-TF), about 105 kDa; E. coli Origami (DE3); tag not removed for kinetics
T2 sequence (A0A0X9FCW5 entry or part of it E292Q): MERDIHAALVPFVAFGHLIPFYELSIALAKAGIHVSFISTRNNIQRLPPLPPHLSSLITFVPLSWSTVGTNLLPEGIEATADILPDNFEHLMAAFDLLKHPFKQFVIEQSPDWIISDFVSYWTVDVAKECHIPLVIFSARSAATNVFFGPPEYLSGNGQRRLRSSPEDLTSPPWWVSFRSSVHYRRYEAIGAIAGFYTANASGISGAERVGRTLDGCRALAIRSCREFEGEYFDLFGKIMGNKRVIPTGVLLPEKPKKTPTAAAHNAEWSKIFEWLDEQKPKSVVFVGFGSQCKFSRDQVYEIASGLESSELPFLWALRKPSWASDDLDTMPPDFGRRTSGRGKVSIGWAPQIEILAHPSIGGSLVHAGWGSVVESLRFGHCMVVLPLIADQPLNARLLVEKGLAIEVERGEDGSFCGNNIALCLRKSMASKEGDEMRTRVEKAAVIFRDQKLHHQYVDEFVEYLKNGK
Description: product formation by HPLC. In kind it is biochemical. As to conditions: co-substrate UDP-glc.

Data set [3] has as its target T3, CsFGT (rCsFGT) (Camellia sinensis, UniProt A0A0X9FCW5, Q352A).
T3 construct: gene UGT91Q1; N-terminal 6xHis-trigger factor fusion (pCold-TF), about 105 kDa; E. coli Origami (DE3); tag not removed for kinetics
Description: product formation by HPLC. Type of data set: biochemical. The following applies: co-substrate UDP-glc.

Data set [4] concerns the target T4, CsFGT (rCsFGT) (Camellia sinensis, UniProt A0A0X9FCW5, G290A).
T4 construct: gene UGT91Q1; N-terminal 6xHis-trigger factor fusion (pCold-TF), about 105 kDa; E. coli Origami (DE3); tag not removed for kinetics
Description: product formation by HPLC. Type of data set: biochemical. The following applies: co-substrate UDP-glc.

Data set [5] has as its target T5, CsFGT (rCsFGT) (Camellia sinensis, UniProt A0A0X9FCW5, E292T).
T5 construct: gene UGT91Q1; N-terminal 6xHis-trigger factor fusion (pCold-TF), about 105 kDa; E. coli Origami (DE3); tag not removed for kinetics
Description: product formation by HPLC. In kind it is biochemical. As to conditions: co-substrate UDP-glc.

Data set [6] has as its target T6, CsFGT (rCsFGT) (Camellia sinensis, UniProt A0A0X9FCW5, R319P).
T6 construct: gene UGT91Q1; N-terminal 6xHis-trigger factor fusion (pCold-TF), about 105 kDa; E. coli Origami (DE3); tag not removed for kinetics
Description: product formation by HPLC. Type of data set: biochemical. As to conditions: co-substrate UDP-glc.

In data set [7] the target is T7, CsFGT (rCsFGT) (Camellia sinensis, UniProt A0A0X9FCW5, R319N).
T7 construct: gene UGT91Q1; N-terminal 6xHis-trigger factor fusion (pCold-TF), about 105 kDa; E. coli Origami (DE3); tag not removed for kinetics
T7 sequence (A0A0X9FCW5 entry or part of it R319N): as the sequence (A0A0X9FCW5 entry or part of it E292Q) above, with Q292E, R319N counted along it
Description: product formation by HPLC. The following applies: co-substrate UDP-glc. Type of data set: biochemical.

For data set [8], the target named is T8, CsFGT (rCsFGT) (Camellia sinensis, UniProt A0A0X9FCW5, Q352I).
T8 construct: gene UGT91Q1; N-terminal 6xHis-trigger factor fusion (pCold-TF), about 105 kDa; E. coli Origami (DE3); tag not removed for kinetics
T8 sequence (A0A0X9FCW5 entry or part of it Q352I): as the sequence (A0A0X9FCW5 entry or part of it E292Q) above, with Q292E, Q352I counted along it
Description: product formation by HPLC. In kind it is biochemical. As to conditions: co-substrate UDP-glc.

Substrate in data set [9]: C[C@@H]1O[C@@H](OC[C@H]2O[C@@H](Oc3c(-c4ccc(O)c(O)c4)oc4cc(O)cc(O)c4c3=O)[C@H](O)[C@@H](O)[C@@H]2O)[C@H](O)[C@H](O)[C@H]1O
Description: UDP-Glo glycosyltransferase assay, Michaelis-Menten fit. The following applies: 1 mM UDP-glucose, 50 mM phosphate pH 8.0, 30°C, 10 min. Type of data set: biochemical, Camellia sinensis. The source says: (§1) UDP-Glo glycosyltransferase assay, Michaelis-Menten fit on CsFGT (rCsFGT)

Substrate in data set [10]: O=c1ccn([C@@H]2O[C@H](COP(=O)(O)OP(=O)(O)O[C@H]3O[C@H](CO)[C@H](O)[C@H](O)[C@H]3O)[C@@H](O)[C@H]2O)c(=O)[nH]1
Described as above. In kind it is biochemical, Camellia sinensis. The following applies: co-substrate delphinidin, pH 8.0, 30°C, 10 min, galactosyl transfer.
Source text: as §1

Substrate in data set [11]: O=c1ccn([C@@H]2O[C@H](CO[P@@](=O)(O)O[P@@](=O)(O)O[C@H]3O[C@H](CO)[C@@H](O)[C@H](O)[C@H]3O)[C@@H](O)[C@H]2O)c(=O)[nH]1
Described as above. The following applies: 100 μM Q-g-r (rutin), 50 mM phosphate pH 8.0, 30°C, 10 min. In kind it is biochemical, Camellia sinensis.
Source text: as §1

Substrate in data set [12]: Oc1cc(O)c2cc(O)c(-c3cc(O)c(O)c(O)c3)[o+]c2c1
Described as above. In kind it is biochemical, Camellia sinensis. The following applies: 1 mM UDP-galactose, pH 8.0, 30°C, 10 min, galactosyl transfer.
Source text: as §1

T4 sequence (A0A0X9FCW5 entry or part of it G290A): as the sequence (A0A0X9FCW5 entry or part of it E292Q) above, with G290A, Q292E counted along it
T1 sequence (A0A0X9FCW5 entry or part of it S291G): as the sequence (A0A0X9FCW5 entry or part of it E292Q) above, with S291G, Q292E counted along it
T6 sequence (A0A0X9FCW5 entry or part of it R319P): as the sequence (A0A0X9FCW5 entry or part of it E292Q) above, with Q292E, R319P counted along it
T3 sequence (A0A0X9FCW5 entry or part of it Q352A): as the sequence (A0A0X9FCW5 entry or part of it E292Q) above, with Q292E, Q352A counted along it
T5 sequence (A0A0X9FCW5 entry or part of it E292T): as the sequence (A0A0X9FCW5 entry or part of it E292Q) above, with Q292T counted along it

For `C[C@@H]1O[C@@H](OC[C@H]2O[C@@H](Oc3c(-c4ccc(O)c(O)c4)oc4cc(O)cc(O)c4c3=O)[C@H](O)[C@@H](O)[C@@H]2O)[C@H](O)[C@H](O)[C@H]1O` [Q-g-r], the relative enzymatic activity result in data set [1] is “mutants with activity unchanged or enhanced (G290A, S291G, E292Q, R319N, and R319P)”; in [2], “mutants with activity unchanged or enhanced (G290A, S291G, E292Q, R319N, and R319P)”; in data set [3], “E292T, Q352A, and Q352I mutants exhibited significantly decreased activity”; in [4] it was “mutants with activity unchanged or enhanced (G290A, S291G, E292Q, R319N, and R319P)”; in [5], “E292T, Q352A, and Q352I mutants exhibited significantly decreased activity”; in data set [6], “mutants with activity unchanged or enhanced (G290A, S291G, E292Q, R319N, and R319P)”. Further, the relative enzymatic activity result is “the mutant R319N had significantly enhanced activity” in [7]; “E292T, Q352A, and Q352I mutants exhibited significantly decreased activity” in data set [8].

B1: CsFGT (rCsFGT) (Camellia sinensis) (protein)
chain: MERDIHAALVPFVAFGHLIPFYELSIALAKAGIHVSFISTRNNIQRLPPLPPHLSSLITFVPLSWSTVGTNLLPEGIEATADILPDNFEHLMAAFDLLKHPFKQFVIEQSPDWIISDFVSYWTVDVAKECHIPLVIFSARSAATNVFFGPPEYLSGNGQRRLRSSPEDLTSPPWWVSFRSSVHYRRYEAIGAIAGFYTANASGISGAERVGRTLDGCRALAIRSCREFEGEYFDLFGKIMGNKRVIPTGVLLPEKPKKTPTAAAHNAEWSKIFEWLDEQKPKSVVFVGFGSECKFSRDQVYEIASGLESSELPFLWALRKPSWASDDLDTMPPDFGRRTSGRGKVSIGWAPQIEILAHPSIGGSLVHAGWGSVVESLRFGHCMVVLPLIADQPLNARLLVEKGLAIEVERGEDGSFCGNNIALCLRKSMASKEGDEMRTRVEKAAVIFRDQKLHHQYVDEFVEYLKNGK
notes: N-terminal 6xHis-trigger factor fusion (pCold-TF), about 105 kDa; E. coli Origami (DE3); tag not removed for kinetics
For the molecule B1, the Michaelis constant (Km) (usually the substrate concentration at which the rate is half of its maximum) in [9] was determined as 50.3 ± 9.7 µM; in data set [10], 1143.3 ± 313.5 µM; in [11], 209.7 ± 43.9 µM; in [12], 902.5 ± 109.0 µM. For the same molecule, the kcat/Km (in general, the second-order rate constant that governs catalysis at low substrate concentration) in data set [9] was 610000 M⁻¹ s⁻¹; in data set [10] it was 3100 M⁻¹ s⁻¹; in data set [11], 110000 M⁻¹ s⁻¹; in data set [12], 24000 M⁻¹ s⁻¹.

(Values after publication PMC12313340, “Functional analysis of a UDP-glucosyltransferase gene contributing to biosynthesis of the flavonol triglycoside in tea plants” (Horticulture Research, 2025).)
